Activity calls are given as the source filed them.

These results are taken from ChEMBL document CHEMBL1201862, “PubChem BioAssay data set” (2004).

In one test the test system is HEK293. Briefly: viability loss in HEK293T cells – cell-based, ATP luminescence, cherry-pick samples, cytotoxicity control, dose response (AID 687005).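 Also: cells exposed to compound for 48 hours.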 It counts as functional. To be noted: Homo sapiens.
In the next test the test system is HeLa. Briefly: viability loss in HeLa cells – cell-based, ATP luminescence, cherry-pick samples, cytotoxicity control, dose response (AID 687004). It counts as functional. To be noted: Homo sapiens.
Test [1] can be described thus: HEK293 Cytotoxicity Assay Measured in Cell-Based System Using Plate Reader - 7071-01_Inhibitor_Dose_CherryPick_Activity_Set2. It counts as functional.
For test [2], the target named is Metabotropic glutamate receptor 3 (Rattus norvegicus, UniProt P31422). Briefly: inhibitors of rat mGlu3 Galpha15 signaling – TREx293 cells, calcium flux, mGlu3 NAM project, dose response (AID 651840). It counts as functional.
The nature of test [3]: inhibition of ADAM10 peptide cleavage – biochemical, FRET peptide substrate, recombinant human ADAM10, selectivity assay for ADAM17 exosite inhibitor project, dose response (AID 743259).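 Also: ADAM10 enzyme cleaving a FRET peptide substrate.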
For test [4], the target named is Disintegrin and metalloproteinase domain-containing protein 17 (Homo sapiens, UniProt P78536). Briefly: exosite inhibitors of ADAM17, dose response, biochemical (AID 743260).
A short description of test [5]: A Cell-Based Confirmatory Screen for Compounds that Inhibit VEEV, TC-83 (8). It counts as functional.
Test [6] has as its target Protein disulfide-isomerase (Homo sapiens, UniProt P07237). Briefly: inhibition of PDI-mediated insulin reduction – biochemical, turbidity, dry powder samples, set 2, confirmation (AID 652146).
Test [7] can be described thus: Late stage assay provider results from the probe development effort to identify inhibitors of the Plasmodium falciparum M17 Leucine Aminopeptidase (M17LAP): radiolabel-based cell-based dose response assay to identify compounds that inhibit P. falciparum growth in RBCs Set 2. It counts as functional.
The nature of test [8]: Late stage assay provider results from the probe development effort to identify selective inhibitors of heat shock protein 90 (HSP90): Absorbance-based cell proliferation assay in MCF7 cells. It counts as functional.
The nature of test [9]: Late stage assay provider results from the probe development effort to identify selective inhibitors of heat shock protein 90 (HSP90): Absorbance-based cell proliferation assay in SKBR3 cells. It counts as functional. To be noted: SK-BR-3.
A short description of test [10]: reduction of Shn3 3'UTR-driven luciferase in osteoblasts – cell-based, Clone20 osteoblasts, firefly luciferase, cherry-picked, dose response (AID 624132).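 Also: firefly luciferase luminescence from reporter carrying the Shn3 3'UTR in osteoblasts.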 It counts as functional.
Test [11] in a line: non-specific 3'UTR reporter inhibition in Clone20-Shn3RL – cell-based, Renilla luciferase, cherry-picked, counter-screen for Shn3 inhibitor project, dose response (AID 624133). It counts as functional.
Test [12] can be described thus: loss of viability in HepG2 cells – cell-based, CellTiter-Glo, cherry-picked, cytotoxicity control for Shn3 inhibitor project, dose response (AID 624134). It counts as functional. For orientation: In ATP-based viability assays light output follows the ATP content of the culture.
Test [13] deals with T1, Microphthalmia-associated transcription factor (Homo sapiens, UniProt O75030).
T1 sequence (O75030 whole entry): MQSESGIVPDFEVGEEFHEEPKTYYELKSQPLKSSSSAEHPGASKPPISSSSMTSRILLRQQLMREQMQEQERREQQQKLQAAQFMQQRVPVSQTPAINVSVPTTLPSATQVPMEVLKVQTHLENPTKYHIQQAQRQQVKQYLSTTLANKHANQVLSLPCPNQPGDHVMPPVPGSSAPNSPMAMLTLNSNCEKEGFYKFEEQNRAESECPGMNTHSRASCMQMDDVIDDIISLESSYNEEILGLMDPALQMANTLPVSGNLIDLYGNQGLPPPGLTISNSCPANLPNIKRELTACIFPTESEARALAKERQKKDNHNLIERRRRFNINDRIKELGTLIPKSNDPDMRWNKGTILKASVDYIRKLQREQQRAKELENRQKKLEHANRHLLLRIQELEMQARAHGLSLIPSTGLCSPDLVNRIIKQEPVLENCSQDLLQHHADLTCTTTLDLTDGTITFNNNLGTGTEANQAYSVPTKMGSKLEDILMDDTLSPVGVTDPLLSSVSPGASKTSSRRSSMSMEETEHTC
Kind of test: reducers of TRPM1 reporter luminescence, concentration series – cell-based, SK-MEL-5, cherry-picked, set 3, MITF inhibitor project, dose response (AID 493073).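 Also: SK-MEL-5 melanoma cells with luciferase driven by the MITF target TRPM1 promoter.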 It counts as functional.

A short description of test [14]: Shn3 3'UTR reporter signal decrease – cell-based, Clone20 osteoblasts, firefly luciferase, cherry-pick, set 2, Schnurri-3 inhibitor project, dose response (AID 720490).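 Also: actives lower the luminescence signal as inhibitors.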 It counts as functional.
The nature of test [15]: viability loss in MITF-independent A375 cells – cell-based, CellTiter-Glo luminescence, dry powder, set 2, counter-screen for MITF inhibitor project, dose response (AID 624489).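 Also: actives are compounds lowering A375 viability meaning general cytotoxicity.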 It counts as functional. To be noted: A-375.
Test [16] in a line: melanocyte viability loss, MITF-dependent cells, cell-based, plate reader, dry powder, cytotoxicity control, dose response (AID 651920). It counts as functional.
The nature of test [17]: off-target signal loss in HeLa-CEM21 co-culture – HeLa F-luc CTL cells, cherry-picked, counter-screen for HIV-1 Env fusion inhibitor project, dose response (AID 652040).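 Also: potency for signal decrease marking cytotoxic or nonspecific inhibition.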 It counts as functional, cell-based.
Test [18] is described as follows: HIV-1 AD8 envelope cell-cell fusion blockers – cherry-pick, dose response (AID 652062).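 Also: luciferase signal from cell-cell fusion driven by HIV-1 clade B AD8 Env; potency is for inhibitors of fusion seen as a drop in luminescence.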 It counts as functional, cell-based.
Test [19] can be described thus: blockers of HIV-1 ZM109 envelope-driven cell-cell fusion – HeLa effector, CEM target cells, luciferase, cherry-pick, dose response (AID 652058).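 Also: luciferase signal from HIV-1 Env mediated cell-cell fusion of effector and target cells.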 It counts as functional, cell-based.
A short description of test [20]: viability loss in CEM21 cells – cell-based, CellTiter-Glo luminescence, cherry-picked, cytotoxicity control for viral fusion inhibitor project, dose response (AID 652042).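 Also: potency for signal decrease meaning cytotoxicity.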 It counts as functional.
The nature of test [21]: blockers of HIV-1 envelope-mediated cell-cell fusion – cherry-pick, dose response (AID 652057). It counts as functional, cell-based.
The next test deals with T2, Streptokinase A (Streptococcus pyogenes serotype M1, UniProt P10520).
T2 sequence (P10520 whole entry): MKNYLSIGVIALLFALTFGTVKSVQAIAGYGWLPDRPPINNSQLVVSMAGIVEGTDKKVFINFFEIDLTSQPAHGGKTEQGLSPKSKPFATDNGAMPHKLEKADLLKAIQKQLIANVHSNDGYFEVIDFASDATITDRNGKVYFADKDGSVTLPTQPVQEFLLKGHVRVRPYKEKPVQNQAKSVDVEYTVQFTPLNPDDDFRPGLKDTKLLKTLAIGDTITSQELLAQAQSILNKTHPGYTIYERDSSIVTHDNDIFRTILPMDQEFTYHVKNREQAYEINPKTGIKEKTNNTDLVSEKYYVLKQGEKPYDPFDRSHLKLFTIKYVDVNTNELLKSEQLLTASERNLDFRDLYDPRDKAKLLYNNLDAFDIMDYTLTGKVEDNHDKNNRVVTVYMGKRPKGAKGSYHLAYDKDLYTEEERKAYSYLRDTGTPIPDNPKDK
Briefly: viability-normalized secreted streptokinase activity reduction – plasminogen activation absorbance, OD405, dose response (AID 1914).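 Also: secreted streptokinase activity via plasminogen activation per viability signal from cell pellet.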 It counts as functional, Streptococcus pyogenes M1 GAS.

A further test has as its system INS1. Kind of test: INS-1E survival protection against cytokine death – cell-based, luminescence, retest, dose response (AID 449756).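 Also: cell death triggered by IL-1 beta plus TNF-alpha plus IFN-gamma mixture; protective hits raise ATP signal compared with cytokine alone wells.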 It counts as functional. To be noted: Rattus norvegicus.
Another test relates to Streptococcus. Briefly: GAS UMAA2166 growth inhibition – luminescence, BacTiterGlo, counter-screen for streptokinase expression inhibitor project, dose response (AID 1915).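 Also: potency for reduction of bacterial viability or growth.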 It counts as functional, organism-based.
The nature of test [22]: viability loss in HepG2 hepatoma cells – cell-based, ATP luminescence, cherry-pick, activator set 2, cytotoxicity control, dose response (AID 1053143). It counts as functional.
In test [23] the test system is Streptococcus sp. 'group A'. Kind of test: Streptococcus pyogenes SK(-)GAS viability under kanamycin – luminescence, BacTiterGlo, confirmation, counter-screen for streptokinase expression inhibitor project, dose response (AID 1900). It counts as functional, organism-based. (A counterscreen serves to expose hits that act by an unwanted route or on another target.)

Test [24] can be described thus: viability of Vero 76 cells – cell-based, set 3, cytotoxicity control, dose response (AID 602439). It counts as functional. The conditions noted are these: Venezuelan equine encephalitis virus.

Protein disulfide-isomerase, sequence (P07237 whole entry): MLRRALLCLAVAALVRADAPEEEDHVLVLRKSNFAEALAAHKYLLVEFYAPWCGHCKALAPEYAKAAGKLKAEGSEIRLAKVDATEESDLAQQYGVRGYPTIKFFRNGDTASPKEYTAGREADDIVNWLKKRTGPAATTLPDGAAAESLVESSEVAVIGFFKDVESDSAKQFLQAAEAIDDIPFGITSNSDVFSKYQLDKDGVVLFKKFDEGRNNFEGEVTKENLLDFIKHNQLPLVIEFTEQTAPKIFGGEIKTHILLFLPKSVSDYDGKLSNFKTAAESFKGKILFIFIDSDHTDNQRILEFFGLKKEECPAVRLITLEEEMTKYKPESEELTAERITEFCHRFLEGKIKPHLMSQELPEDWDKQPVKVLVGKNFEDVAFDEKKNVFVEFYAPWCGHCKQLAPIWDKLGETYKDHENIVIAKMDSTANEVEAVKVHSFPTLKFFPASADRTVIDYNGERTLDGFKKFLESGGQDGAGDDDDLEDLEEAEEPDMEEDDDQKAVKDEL
Disintegrin and metalloproteinase domain-containing protein 17, sequence (P78536 whole entry, the tested form may be a part): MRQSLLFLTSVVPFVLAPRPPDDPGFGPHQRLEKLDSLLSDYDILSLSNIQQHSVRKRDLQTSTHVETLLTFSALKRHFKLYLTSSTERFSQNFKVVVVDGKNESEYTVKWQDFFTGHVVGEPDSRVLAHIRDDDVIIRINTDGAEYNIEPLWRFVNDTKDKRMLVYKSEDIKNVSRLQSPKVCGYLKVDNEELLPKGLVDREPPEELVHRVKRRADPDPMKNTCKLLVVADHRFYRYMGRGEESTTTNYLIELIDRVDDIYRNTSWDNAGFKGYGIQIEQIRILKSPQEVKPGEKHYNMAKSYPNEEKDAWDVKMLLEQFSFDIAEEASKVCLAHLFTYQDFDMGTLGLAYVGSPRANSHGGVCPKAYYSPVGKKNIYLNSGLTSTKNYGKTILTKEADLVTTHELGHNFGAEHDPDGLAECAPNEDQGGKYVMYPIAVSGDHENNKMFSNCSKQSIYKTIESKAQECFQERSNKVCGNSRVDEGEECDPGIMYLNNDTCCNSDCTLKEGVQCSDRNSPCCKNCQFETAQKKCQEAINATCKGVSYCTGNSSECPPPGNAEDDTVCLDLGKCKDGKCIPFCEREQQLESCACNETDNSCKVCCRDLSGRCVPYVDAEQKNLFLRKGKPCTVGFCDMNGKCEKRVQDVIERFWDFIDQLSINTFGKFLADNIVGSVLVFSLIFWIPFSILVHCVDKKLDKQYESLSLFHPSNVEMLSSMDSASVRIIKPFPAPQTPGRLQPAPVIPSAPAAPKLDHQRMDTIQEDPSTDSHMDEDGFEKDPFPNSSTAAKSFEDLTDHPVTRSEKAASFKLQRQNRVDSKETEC
Metabotropic glutamate receptor 3, sequence (P31422 whole entry): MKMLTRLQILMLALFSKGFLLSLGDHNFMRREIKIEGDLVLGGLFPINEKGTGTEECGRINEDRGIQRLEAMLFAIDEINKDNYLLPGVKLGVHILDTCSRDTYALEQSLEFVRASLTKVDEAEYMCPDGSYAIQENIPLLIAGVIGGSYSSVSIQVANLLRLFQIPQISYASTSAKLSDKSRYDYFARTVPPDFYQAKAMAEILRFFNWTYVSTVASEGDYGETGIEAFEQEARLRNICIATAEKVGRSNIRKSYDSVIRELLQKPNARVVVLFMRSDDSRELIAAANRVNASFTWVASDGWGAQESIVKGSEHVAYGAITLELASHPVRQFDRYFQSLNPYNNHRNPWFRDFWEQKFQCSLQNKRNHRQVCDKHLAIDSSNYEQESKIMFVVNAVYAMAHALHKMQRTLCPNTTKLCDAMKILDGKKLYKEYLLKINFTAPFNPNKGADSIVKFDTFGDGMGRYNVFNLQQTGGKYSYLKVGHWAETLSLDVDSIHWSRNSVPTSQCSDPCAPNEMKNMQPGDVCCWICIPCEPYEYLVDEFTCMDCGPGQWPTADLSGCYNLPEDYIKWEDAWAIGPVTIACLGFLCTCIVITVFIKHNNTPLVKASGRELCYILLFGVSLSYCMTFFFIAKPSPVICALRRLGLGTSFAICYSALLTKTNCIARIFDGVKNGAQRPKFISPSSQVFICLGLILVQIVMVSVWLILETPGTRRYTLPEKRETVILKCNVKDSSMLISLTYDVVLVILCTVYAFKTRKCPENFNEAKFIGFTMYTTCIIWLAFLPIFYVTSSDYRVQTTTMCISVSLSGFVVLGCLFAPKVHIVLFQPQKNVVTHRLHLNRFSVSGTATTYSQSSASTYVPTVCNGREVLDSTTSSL

By AC50 is commonly meant the midpoint of the concentration-response curve, whichever way the signal moves. Regarding `CCCC#Cc1ccc2c(c1)O[C@H](CN(C)CCC)[C@H](C)CN([C@@H](C)CO)S2(=O)=O`, the values for the AC50 (in the test with HEK293; in the test on HeLa; in test [1]) were 14.6 µM (active), 42.6 µM (active) and 14.6 µM (active), respectively.

What is called IC50 is the concentration that inhibits the measured activity by half. For `COc1ccc(C#Cc2ccc(C(=O)N3CCC[C@@H](O)C3)cc2)cc1`, the IC50 in [2] was 0.597 µM.

In the case of `Cc1ccc(CC2(c3ccccc3)NC(=O)NC2=O)cc1` (centres undefined), the IC50 in test [3] is > 69.4 µM (inactive); in test [4] it was 18.6 µM (inactive).

With `O=c1nc(Nc2ccc(OCc3ccccc3)cc2)sc2ncc(F)cc12`, the IC50 in [5] is 1.42 µM (active).

For the molecule `C=CCOc1ccc(CN2CCC(CCOc3ccccc3)(C(=O)N3CCCC3)CC2)cc1Cl`, the AC50 in test [6] was > 30 µM (inactive).

With `O=C(Cc1ccc2ccccc2c1)NO`, the IC50 in test [7] is 5.8 µM (active).

With `COc1ccccc1/N=N/c1c(O)[nH]c(=O)c(C#N)c1C`, the IC50 in [8] and in [9] was > 100 µM (inactive) throughout.

As for `COc1ccccc1NS(=O)(=O)c1cc(NC(=O)c2ccc(Cl)nc2)ccc1Cl`, the AC50 was 3.12 µM (active) in test [10]; 21 µM (active) in test [11]; 56.2 µM (active) in test [12]; 11.3 µM (active) in test [13]; 3.71 µM (active) in test [14].

As for `O=C(NC1=C(N2CCN(c3ccccc3)CC2)C(=O)c2ccccc2C1=O)c1ccccc1`, the AC50 in [15] and in [16] was > 70 µM (inactive) each time.

Turning to `Cc1cc(C)nc(Nc2nc(C(N)CCc3ccccc3)cs2)n1` (centres undefined), the AC50 in [17] was 6.75 µM (active); in test [18] it was 18.2 µM (active); in test [19] it was 3.65 µM (active); in test [20], 40.1 µM (active); in test [21], 4.75 µM (active).

The EC50 is the concentration that produces a half-maximal response. In the case of `CCOC(=O)c1sc(NC(=O)Nc2cccc(Cl)c2)cc1C`, the results for the EC50 (on Streptokinase A; in the test with Streptococcus; in test [23]) were 11.2 µM (active), 4.1 µM (active) and 4.86 µM (active), respectively. Also, the concentration at half-maximal activity (AC50) with INS1 was 4.57 µM (active); in test [22], 14.7 µM (active).

The CC50 is the concentration that lowers cell viability or growth by half. As for `O=C(Nc1nc2c(s1)CCCC2)c1cccs1`, the CC50 in test [24] is > 50 µM (active).
